Test system: 855422-203-R-J1-PDC complex spheroid viability
Test: Anticancer human tumor 855422-203-R-J1-PDC patient-derived bladder carcinoma cell line growth inhibition [POLQ]
Settings: for IC50: curve of first compound; for viability, T/C: stronger effect = lower value
Description: Multicellular complex tumor spheroid response to Polymerase (POL) inhibitors (novobiocin, ART-558, RP6685) in combination with a variety of drugs and investigational agents in selected tumor cell lines
The POL inhibitors (novobiocin, ART-558, and RP6685) were evaluated both individually and in combination with standard of care and investigational anticancer small molecules within a complex spheroid model of solid tumors. . Complex spheroids include a stromal component modeled by human endothelial cells (HUVEC) and fibroblasts modeled by human mesenchymal stem cells (MSCs). The concentration ranges selected for each drug and investigational agent were based upon clinically achievable concentrations if the clinical Cmax of the agent was known.
Compounds. The drugs and investigational agents: novobiocin (NSC847541), ART-558 (NSC835418), RP-6685 (NSC848927), peposertib (NSC802822), ceralasertib (NSC780249), elimusertib (NSC800525), camonsertib (NSC841442), AZD-1390 (NSC803789), olaparib (NSC753686), talazoparib (NSC767125), rucaparib (NSC756644), sotorasib (NSC818433), MRTX-1133 (NSC836407), SN-38 (NSC673596), topotecan (NSC609699), epotoside (NSC141540), doxorubicin (NSC123127), gemcitabine (NSC613327), 5-fluorouracil (NSC19893), paclitaxel (NSC125973), vemurafenib (NSC761431), MSA-2 (NSC828583), SN-011 (NSC837082), adavosertib (NSC754352), prexasertib (NSC758257), carboplatin (NSC241240) and oxaliplatin (NSC266046), were obtained from the National Cancer Institute (NCI) Developmental Therapeutics Program Chemical Repository (21). The FDA-approved anticancer drug set is available from the Developmental Therapeutics Program at https://dtp.cancer.gov/organization/dscb/obtaining/. […] The stock solutions were prepared in dimethyl sulfoxide (DMSO, Sigma-Aldrich, St. Louis, MO, cat. D2650), except for the platinum compounds which were prepared in saline (Quality Biological, Gaithersburg, MD, cat. 114-055-101), at 800-fold the tested concentration and stored at -70 degrees C prior to their use. All drugs and investigational agents were tested over a range starting from a high concentration at or near the clinical Cmax and decreasing in half-log increments. If the clinical Cmax for an agent had not been determined, the highest concentration tested was 10 microM, except for SN-38, which was tested at a high concentration of 1 microM.
Cell Culture. All cells were maintained in an incubator at 37 degrees C and 5% CO2 with 95% humidity. The PDC lines were cultured according to standard operating procedures established by the NCI PDMR (https://pdmr.cancer.gov). Table 3 of the manuscript, lists the cell lines along with the number of the three cell types plated to form the mct-spheroids and media for tumor cell growth. After thawing, all PDC lines, except 997537-175-T-J1-PDC and 415267-285-R-J2-PDC, were cultured in Matrigel-coated flasks prepared with a working solution of 1X Ham's F-12 nutrient mix, without supplementation (Thermo Fisher Scientific, cat. 11765054), 100 U/mL penicillin-streptomycin (Thermo Fisher Scientific, cat. 15140122), and 2.5% Matrigel (Corning Inc., Corning, NY, cat. 354248) for the first three passages. The two PDC lines 997537-175-T-J1-PDC and 415267-285-R-J2-PDC were cultured on uncoated flasks. The 857933-349-R-J2-PDC line was cultured in 6C/Colon 1B media containing advanced DMEM/F-12 (Thermo Fisher Scientific, cat. 12634028), 10 mM HEPES (Thermo Fisher Scientific, cat. 15630080), 1X GlutaMAX supplement (Thermo Fisher Scientific, cat. 35050061), 0.1 mg/mL primocin (InvivoGen, San Diego, CA, cat. ant-pm-2), 10% defined fetal bovine serum, heat inactivated (HyClone Laboratories Inc., Logan, UT, cat. SH30070.03HI), 50% L-WRN conditioned media (ATCC, cat. CRL-3276), 1.25 mM N-Acetyl-L-cysteine (Sigma-Aldrich, cat. A9165), 10 mM nicotinamide (Sigma-Aldrich, cat. N0636), 1X B-27 supplement (Thermo Fisher Scientific, cat. 17504044), 1X N-2 supplement (Thermo Fisher Scientific, cat. […]

[1] = second compound 0.0316 µM, first compound 0.0316 µM
[2] = second compound 0.0316 µM, first compound 0.1 µM
[3] = second compound 0.0316 µM, first compound 0.316 µM
[4] = second compound 0.0316 µM, first compound 1 µM
[5] = second compound 0.0316 µM, first compound 3.16 µM
[6] = second compound 0.0316 µM, first compound 10 µM
[7] = second compound 0.1 µM, first compound 0.0316 µM
[8] = second compound 0.1 µM, first compound 0.1 µM
[9] = second compound 0.1 µM, first compound 0.316 µM
[10] = second compound 0.1 µM, first compound 1 µM
[11] = second compound 0.1 µM, first compound 3.16 µM
[12] = second compound 0.1 µM, first compound 10 µM
[13] = second compound 0.316 µM, first compound 0.0316 µM
[14] = second compound 0.316 µM, first compound 0.1 µM
[15] = second compound 0.316 µM, first compound 0.316 µM
[16] = second compound 0.316 µM, first compound 1 µM
[17] = second compound 0.316 µM, first compound 3.16 µM
[18] = second compound 0.316 µM, first compound 10 µM
[19] = second compound 1 µM, first compound 0.0316 µM
[20] = second compound 1 µM, first compound 0.1 µM
[21] = second compound 1 µM, first compound 0.316 µM
[22] = second compound 1 µM, first compound 1 µM
[23] = second compound 1 µM, first compound 3.16 µM
[24] = second compound 1 µM, first compound 10 µM
[25] = second compound 3.16 µM, first compound 0.0316 µM
[26] = second compound 3.16 µM, first compound 0.1 µM
[27] = second compound 3.16 µM, first compound 0.316 µM
[28] = second compound 3.16 µM, first compound 1 µM
[29] = second compound 3.16 µM, first compound 3.16 µM
[30] = second compound 3.16 µM, first compound 10 µM
[31] = second compound 10 µM, first compound 0.0316 µM
[32] = second compound 10 µM, first compound 0.1 µM
[33] = second compound 10 µM, first compound 0.316 µM
[34] = second compound 10 µM, first compound 1 µM
[35] = second compound 10 µM, first compound 3.16 µM
[36] = second compound 10 µM, first compound 10 µM
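Further: spheroids exposed to compounds for seven days before readout.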

In the case of CC1COCCN1c1cc(C2(O)CC3CCC(C2)O3)c2cnn(-c3ccn[nH]3)c2n1 (centres undefined) + Cc1cccc(N(C)C(=O)C2C(O)CCN2c2nc(C)cc(C(F)(F)F)c2C#N)c1, the IC50 (second compound 0.0316 µM) is reported as 0.0938 µM, the IC50 (second compound 0.1 µM) is reported as 0.0901 µM and the IC50 (second compound 0.316 µM) is reported as 0.0882 µM. The IC50 (second compound 1 µM) was 0.0898 µM, the IC50 (second compound 3.16 µM) was 0.0911 µM and the IC50 (second compound 10 µM) was 0.0834 µM. The viability, T/C [1] was 109%, the viability, T/C [2] was 46.7% and the viability, T/C [3] was 14.1%. For the same compound, the viability, T/C [4] was 9.62%, the viability, T/C [5] was 6.47% and the viability, T/C [6] was 3.79%. It also gave a viability, T/C [7] of 91.8%, a viability, T/C [8] of 45.9% and a viability, T/C [9] of 12.6%. It also gave a viability, T/C [10] of 9%, a viability, T/C [11] of 6.6% and a viability, T/C [12] of 4.11%. The viability, T/C [13] was 104%, the viability, T/C [14] was 43.5% and the viability, T/C [15] was 16.4%. For the same compound, the viability, T/C [16] was 8.37%, the viability, T/C [17] was 6.11% and the viability, T/C [18] was 3.68%. For the same compound, the viability, T/C [19] was 95%, the viability, T/C [20] was 45.5% and the viability, T/C [21] was 13.2%. For the same compound, the viability, T/C [22] was 9.4%, the viability, T/C [23] was 5.77% and the viability, T/C [24] was 3.51%. It also gave a viability, T/C [25] of 97.5%, a viability, T/C [26] of 45.8% and a viability, T/C [27] of 10.4%. It also gave a viability, T/C [28] of 9.18%, a viability, T/C [29] of 6.79% and a viability, T/C [30] of 4.13%. The viability, T/C [31] was 83.4%, the viability, T/C [32] was 44% and the viability, T/C [33] was 15.1%. For the same compound, the viability, T/C [34] was 9.77%, the viability, T/C [35] was 7.49% and the viability, T/C [36] was 2.55%.
CCc1cc2c(N3CCc4c(cc(Cn5ccnc5)cc4-c4cn(C)nc4C(F)(F)F)C3=O)cc(C)nc2c(OC)n1 + Cc1cccc(N(C)C(=O)C2C(O)CCN2c2nc(C)cc(C(F)(F)F)c2C#N)c1 showed an IC50 (second compound 0.0316 µM) of 2.91 µM, an IC50 (second compound 0.1 µM) of 6.15 µM and an IC50 (second compound 0.316 µM) of 6.91 µM. It also gave an IC50 (second compound 1 µM) of 7.37 µM, an IC50 (second compound 3.16 µM) of 9.61 µM and an IC50 (second compound 10 µM) of 6.32 µM. It also gave a viability, T/C [1] of 102%, a viability, T/C [2] of 134% and a viability, T/C [3] of 134%. For the same compound, the viability, T/C [4] was 72.5%, the viability, T/C [5] was 61.1% and the viability, T/C [6] was 35.2%. The viability, T/C [7] was 101%, the viability, T/C [8] was 144% and the viability, T/C [9] was 119%. The viability, T/C [10] was 91.1%, the viability, T/C [11] was 66.8% and the viability, T/C [12] was 39.1%. The viability, T/C [13] was 126%, the viability, T/C [14] was 147% and the viability, T/C [15] was 103%. The viability, T/C [16] was 111%, the viability, T/C [17] was 70.7% and the viability, T/C [18] was 39.4%. For the same compound, the viability, T/C [19] was 119%, the viability, T/C [20] was 125% and the viability, T/C [21] was 113%. It also gave a viability, T/C [22] of 81%, a viability, T/C [23] of 71.7% and a viability, T/C [24] of 42.4%. It also gave a viability, T/C [25] of 135%, a viability, T/C [26] of 128% and a viability, T/C [27] of 143%. For the same compound, the viability, T/C [28] was 95.3%, the viability, T/C [29] was 71.4% and the viability, T/C [30] was 46.1%. The viability, T/C [31] was 110%, the viability, T/C [32] was 132% and the viability, T/C [33] was 145%. It also gave a viability, T/C [34] of 98.2%, a viability, T/C [35] of 73.1% and a viability, T/C [36] of 36.1%.

From PubChem BioAssay AID1963838 (Molecular Pharmacology Branch, DTP, NCI, 2024)
